Reference: ChEMBL document CHEMBL1201862, “PubChem BioAssay data set” (2004)
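Five concentrations, 48 hours, 96-well plates. The concentration for 50% growth inhibition is given as GI50.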 Activity calls are given as the source filed them. No stated cut-off is given here; in the data, active = GI50 up to about 1.1 µM and inactive = higher.

Columns and labels:
Assay in all cases: inhibition of tumour cell growth, NCI panel, 48 h
[1] = test system: A498
[2] = test system: COLO 205
[3] = test system: EKVX
[4] = test system: HCC 2998
[5] = test system: NCI-H226
[6] = test system: OVCAR-3
[7] = test system: OVCAR-4
[8] = test system: OVCAR-5
[9] = test system: OVCAR-8
[10] = test system: RPMI-8226
[11] = test system: SK-MEL-28
[12] = test system: SK-MEL-5
[13] = test system: SNB-19
[14] = test system: SW-620
[15] = test system: U-251
[16] = test system: UACC-257
[17] = test system: MDA-MB-435
[18] = test system: T47D
[19] = test system: MDA-MB-231
[20] = test system: BT-549

Question: With `O=C(O)CCSC(=O)Nc1cccc2ccccc12` as the molecule, how does the GI50 [1] read?
Answer: > 100 µM (inactive)

Question: And the GI50 [2]?
Answer: > 100 µM (inactive)

Question: What about the GI50 [3] of the same molecule?
Answer: > 100 µM (inactive)

Question: And the GI50 [4]?
Answer: > 100 µM (inactive)

Question: And the GI50 [5]?
Answer: > 100 µM (inactive)

Question: What about the GI50 [6] of the same molecule?
Answer: > 100 µM (inactive)

Question: And the GI50 [7]?
Answer: > 100 µM (inactive)

Question: And the GI50 [8]?
Answer: > 100 µM (inactive)

Question: And the GI50 [9]?
Answer: > 100 µM (inactive)

Question: And the GI50 [10]?
Answer: > 100 µM (inactive)

Question: And the GI50 [11]?
Answer: > 100 µM (inactive)

Question: And the GI50 [12]?
Answer: > 100 µM (inactive)

Question: And the GI50 [13]?
Answer: > 100 µM (inactive)

Question: What about the GI50 [14] of the same molecule?
Answer: > 100 µM (inactive)

Question: And the GI50 [15]?
Answer: > 100 µM (inactive)

Question: And the GI50 [16]?
Answer: > 100 µM (inactive)

Question: What does the source list for `CC(C)(C)OC(=O)NC(CO)c1cccc(OCc2ccccc2)c1` (stereo unspecified)?
Answer: GI50 [1]: > 87.9 µM (inactive); GI50 [2]: 47.3 µM (inactive); GI50 [3]: 8.39 µM (inactive); GI50 [4]: > 100 µM (inactive); GI50 [5]: > 100 µM (inactive); GI50 [6]: > 100 µM (inactive); GI50 [7]: 99.8 µM (inactive); GI50 [8]: > 100 µM (inactive); GI50 [9]: > 100 µM (inactive); GI50 [10]: 43.4 µM (inactive); GI50 [11]: > 100 µM (inactive); GI50 [12]: 28.2 µM (inactive); GI50 [13]: > 81.7 µM (inactive); GI50 [14]: > 90.4 µM (inactive); GI50 [15]: 94.6 µM (inactive); GI50 [16]: 25.9 µM (inactive)

Question: `CC(=O)OC1[C@H](OC(C)=O)C2=C(C)[C@@H](OC(C)=O)C[C@@]2(C(C)(C)O)[C@@H](OC(C)=O)[C@H]2[C@@]1(C)[C@@H](OC(C)=O)CC(OC(C)=O)[C@]21CO1` (stereo partly specified) was tested. Which GI50 [2] did it give?
Answer: > 100 µM (inactive)

Question: And the GI50 [3]?
Answer: > 100 µM (inactive)

Question: And the GI50 [17]?
Answer: > 100 µM (inactive)

Question: What about the GI50 [5] of the same molecule?
Answer: > 100 µM (inactive)

Question: What about the GI50 [6] of the same molecule?
Answer: > 100 µM (inactive)

Question: And the GI50 [7]?
Answer: > 100 µM (inactive)

Question: What about the GI50 [8] of the same molecule?
Answer: > 100 µM (inactive)

Question: What about the GI50 [9] of the same molecule?
Answer: > 100 µM (inactive)

Question: And the GI50 [10]?
Answer: > 100 µM (inactive)

Question: What about the GI50 [11] of the same molecule?
Answer: > 100 µM (inactive)

Question: What about the GI50 [12] of the same molecule?
Answer: > 100 µM (inactive)

Question: And the GI50 [13]?
Answer: > 100 µM (inactive)

Question: What about the GI50 [14] of the same molecule?
Answer: > 100 µM (inactive)

Question: And the GI50 [18]?
Answer: > 100 µM (inactive)

Question: And the GI50 [15]?
Answer: > 100 µM (inactive)

Question: What about the GI50 [16] of the same molecule?
Answer: > 100 µM (inactive)

Question: Which results are given for `COC1=CC(=O)C2C(C1=O)C(c1ccc(Cl)cc1)[C@@H]2C` (stereo partly specified)?
Answer: GI50 [1]: 58.9 µM (inactive); GI50 [2]: 35 µM (inactive); GI50 [3]: 26.3 µM (inactive); GI50 [4]: 45.5 µM (inactive); GI50 [5]: 22.1 µM (inactive); GI50 [6]: 34.6 µM (inactive); GI50 [7]: 42.4 µM (inactive); GI50 [8]: 30.3 µM (inactive); GI50 [9]: 20.6 µM (inactive); GI50 [10]: 39.7 µM (inactive); GI50 [11]: 28.9 µM (inactive); GI50 [12]: 19.5 µM (inactive); GI50 [13]: 7.05 µM (inactive); GI50 [14]: 27.4 µM (inactive); GI50 [15]: 25.2 µM (inactive); GI50 [16]: 20.6 µM (inactive)

Question: How did the GI50 [2] turn out when `Cc1ccc2n(c1)cc(-c1ccc(/C=N/NC(=N)N/N=C/c3ccc(-c4cn5cc(C)ccc5[n+]4C)cc3)cc1)[n+]2C` was run?
Answer: > 100 µM (inactive)

Question: What about the GI50 [3] of the same molecule?
Answer: > 100 µM (inactive)

Question: What about the GI50 [4] of the same molecule?
Answer: > 100 µM (inactive)

Question: What about the GI50 [19] of the same molecule?
Answer: > 100 µM (inactive)

Question: And the GI50 [17]?
Answer: 35.6 µM (inactive)

Question: And the GI50 [7]?
Answer: 26.9 µM (inactive)

Question: And the GI50 [8]?
Answer: > 100 µM (inactive)

Question: What about the GI50 [9] of the same molecule?
Answer: > 100 µM (inactive)

Question: And the GI50 [10]?
Answer: > 100 µM (inactive)

Question: What about the GI50 [11] of the same molecule?
Answer: 19.5 µM (inactive)

Question: What about the GI50 [12] of the same molecule?
Answer: 41.1 µM (inactive)

Question: And the GI50 [13]?
Answer: > 100 µM (inactive)

Question: What about the GI50 [14] of the same molecule?
Answer: > 100 µM (inactive)

Question: And the GI50 [18]?
Answer: > 100 µM (inactive)

Question: And the GI50 [15]?
Answer: > 100 µM (inactive)

Question: And the GI50 [16]?
Answer: 50.6 µM (inactive)

Question: Which results are given for `Nc1ccc(-c2nc3ccccc3s2)cc1F`?
Answer: GI50 [1]: 0.0775 µM (active); GI50 [20]: 68.4 µM (inactive); GI50 [2]: 20.9 µM (inactive); GI50 [3]: 2.59 µM (inactive); GI50 [19]: 13.6 µM (inactive); GI50 [17]: 31.6 µM (inactive); GI50 [5]: < 0.01 µM (active); GI50 [6]: 18.5 µM (inactive); GI50 [7]: 18.7 µM (inactive); GI50 [9]: > 100 µM (inactive); GI50 [11]: 46.6 µM (inactive); GI50 [12]: 20 µM (inactive); GI50 [13]: 19.2 µM (inactive); GI50 [14]: 42.3 µM (inactive); GI50 [15]: 15.4 µM (inactive); GI50 [16]: 39.6 µM (inactive)

Question: For `COc1ccc(/C=C\c2cc(OC)c(OC(C)=O)c(OC)c2)cc1`, which GI50 [1] is on record?
Answer: 14.2 µM (inactive)

Question: What about the GI50 [2] of the same molecule?
Answer: 34.4 µM (inactive)

Question: And the GI50 [3]?
Answer: 15.6 µM (inactive)

Question: What about the GI50 [4] of the same molecule?
Answer: 10.7 µM (inactive)

Question: What about the GI50 [5] of the same molecule?
Answer: 27.4 µM (inactive)

Question: And the GI50 [6]?
Answer: 20.8 µM (inactive)

Question: What about the GI50 [7] of the same molecule?
Answer: 26.4 µM (inactive)

Question: What about the GI50 [8] of the same molecule?
Answer: 28.7 µM (inactive)

Question: And the GI50 [9]?
Answer: 8.89 µM (inactive)

Question: And the GI50 [10]?
Answer: 12.8 µM (inactive)

Question: What about the GI50 [11] of the same molecule?
Answer: 3.43 µM (inactive)

Question: What about the GI50 [12] of the same molecule?
Answer: 5.55 µM (inactive)

Question: What about the GI50 [13] of the same molecule?
Answer: 7.24 µM (inactive)

Question: What about the GI50 [14] of the same molecule?
Answer: 11.1 µM (inactive)

Question: What about the GI50 [15] of the same molecule?
Answer: 4.21 µM (inactive)

Question: And the GI50 [16]?
Answer: 17.3 µM (inactive)

Question: Which GI50 [1] does the source give for `CC(=O)NCC1(c2ccccc2)CCN(CC2COc3ccccc3O2)CC1` (stereo unspecified) [ACOXATRINE] here?
Answer: > 100 µM (inactive)

Question: And the GI50 [2]?
Answer: > 100 µM (inactive)

Question: What about the GI50 [3] of the same molecule?
Answer: > 100 µM (inactive)

Question: What about the GI50 [4] of the same molecule?
Answer: > 100 µM (inactive)

Question: What about the GI50 [19] of the same molecule?
Answer: > 100 µM (inactive)

Question: What about the GI50 [17] of the same molecule?
Answer: > 100 µM (inactive)

Question: What about the GI50 [5] of the same molecule?
Answer: > 100 µM (inactive)

Question: What about the GI50 [6] of the same molecule?
Answer: > 100 µM (inactive)

Question: What about the GI50 [7] of the same molecule?
Answer: > 100 µM (inactive)

Question: What about the GI50 [8] of the same molecule?
Answer: > 100 µM (inactive)

Question: And the GI50 [9]?
Answer: > 100 µM (inactive)

Question: And the GI50 [10]?
Answer: > 100 µM (inactive)

Question: What about the GI50 [11] of the same molecule?
Answer: > 100 µM (inactive)

Question: What about the GI50 [12] of the same molecule?
Answer: > 100 µM (inactive)

Question: What about the GI50 [13] of the same molecule?
Answer: > 100 µM (inactive)

Question: What about the GI50 [14] of the same molecule?
Answer: > 100 µM (inactive)

Question: What about the GI50 [18] of the same molecule?
Answer: > 100 µM (inactive)

Question: And the GI50 [15]?
Answer: > 100 µM (inactive)

Question: And the GI50 [16]?
Answer: > 100 µM (inactive)
